Patent publication US8987195B2 (priority 2012, dated 2015)
Where two headings read alike, the source gives them in different places.

Experiments:
[1] = molecular target: HCV NS3/4A protease genotype 1b (Hepatitis C virus genotype 1b, UniProt P26663); assay: HCV NS3/4A protease time-resolved fluorescence (TRF) assay, Ki against genotype 1b; assay type: biochemical; details: IC50 [gt-1b] (nM), NS3/4A genotype 1b, enzyme 0.2 nM
Method in brief: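 Enzyme was pre-incubated 30 min with inhibitor in HEPES pH 7.5 buffer (150 mM NaCl, 15% glycerol, 10 mM DTT). Reaction ran 2.5 h at room temperature with 25 nM europium TRF peptide substrate, read at ex 340/em 615 nm. Enzyme levels: 0.2 nM (1b), 0.4 nM (A156T), 0.025 nM (3a). Ki came from four-parameter IC50 via IC50=Ki(1+[S]/KM).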

HCV genotype 1b replicon = assay: HCV replicon assay, genotype 1b replicon EC50; assay type: cell-based, Hepatitis C virus; details: Hepatitis C virus, genotype 1b replicon, read-out: EC50 [gt-1b]
Method in brief: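 Compound dilution series incubated 24-48 h, G418 absent, with HCV genotype 1b replicon cell lines kept under G418 selection beforehand. Luciferase signal or replicon RNA, by ^32P hybridization/protection or TaqMan normalized to cyclophilin A, was measured after washing and lysis. Four-parameter fitting against DMSO control gave EC50.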

Row | SMILES | IC50 ([1]; K+ salt) | EC50 (HCV genotype 1b replicon; K+ salt) | IC50 [1] | EC50 (HCV genotype 1b replicon)
1 | COc1ccc2nc(C3CC3)c3c(c2c1)CC[C@]1(C[C@H]2C(=O)N[C@]4(C(=O)NS(=O)(=O)C5(C)CC5)C[C@H]4/C=C\CCCCC[C@H](NC(=O)OC4(C)CCC4)C(=O)N2C1)O3 [Example 152, 1-methylcyclobutyl [(2R,6S,12Z,13aS,14aR,16aS)-5′-cyclopropyl-9′-methoxy-14a-{[(1-methylcyclopropyl)sulfonyl]carbamoyl}-5,16-dioxo-1,1′,2′,5,6,7,8,9,10,11,13a,14,14a,15,16,16a-hexadecahydrospiro[cyclopropa[e]pyrrolo[1,2-a][1,4]diazacyclopentadecine-2,3′-pyrano[2,3-c]quinolin]-6-yl]carbamate] | 0.014 nM | 729 pM | – | –
2 | COc1ccc2nc(C3CC3)c3c(c2c1)CC[C@]1(C[C@H]2C(=O)N[C@]4(C(=O)NS(=O)(=O)C5(C)CC5)C[C@H]4/C=C\CCCCC[C@H](NC(=O)OCC(C)(C)C)C(=O)N2C1)O3 [Example 153, 2,2-dimethylpropyl [(2R,6S,12Z,13aS,14aR,16aS)-5′-cyclopropyl-9′-methoxy-14a-{[(1-methylcyclopropyl)sulfonyl]carbamoyl}-5,16-dioxo-1,1′,2′,5,6,7,8,9,10,11,13a,14,14a,15,16,16a-hexadecahydrospiro[cyclopropa[e]pyrrolo[1,2-a][1,4]diazacyclopentadecine-2,3′-pyrano[2,3-c]quinolin]-6-yl]carbamate] | 0.014 nM | 1860 pM | – | –
3 | COc1ccc2nc(C(C)C)c3c(c2c1)CC[C@]1(C[C@H]2C(=O)N[C@]4(C(=O)NS(=O)(=O)C5(C)CC5)C[C@H]4/C=C\CCCCC[C@H](NC(=O)OCC(C)C)C(=O)N2C1)O3 [Example 154, 2-methylpropyl [(2R,6S,12Z,13aS,14aR,16aS)-9′-methoxy-14a-{[(1-methylcyclopropyl)sulfonyl]carbamoyl}-5,16-dioxo-5′-(propan-2-yl)-1,1′,2′,5,6,7,8,9,10,11,13a,14,14a,15,16,16a-hexadecahydrospiro[cyclopropa[e]pyrrolo[1,2-a][1,4]diazacyclopentadecine-2,3′-pyrano[2,3-c]quinolin]-6-yl]carbamate] | – | – | 0.014 nM | 1000 pM
4 | COc1ccc2nc(C(C)C)c3c(c2c1)CC[C@]1(C[C@H]2C(=O)N[C@]4(C(=O)NS(=O)(=O)C5(C)CC5)C[C@H]4/C=C\CCCCC[C@H](NC(=O)OC4CCCC4)C(=O)N2C1)O3 [Example 155, cyclopentyl [(2R,6S,12Z,13aS,14aR,16aS)-9′-methoxy-14a-{[(1-methylcyclopropyl)sulfonyl]carbamoyl}-5,16-dioxo-5′-(propan-2-yl)-1,1′,2′,5,6,7,8,9,10,11,13a,14,14a,15,16,16a-hexadecahydrospiro[cyclopropa[e]pyrrolo[1,2-a][1,4]diazacyclopentadecine-2,3′-pyrano[2,3-c]quinolin]-6-yl]carbamate] | – | – | 0.015 nM | 1170 pM
5 | CC(C)OC(=O)N[C@H]1CCCCC/C=C\[C@@H]2C[C@@]2(C(=O)NS(=O)(=O)C2(C)CC2)NC(=O)[C@@H]2C[C@]3(CCc4c(c(C(F)(F)F)nc5ccccc45)O3)CN2C1=O [Example 157, propan-2-yl [(2R,6S,12Z,13aS,14aR,16aS)-14a-{[(1-methylcyclopropyl)sulfonyl]carbamoyl}-5,16-dioxo-5′-(trifluoromethyl)-1,1′,2′,5,6,7,8,9,10,11,13a,14,14a,15,16,16a-hexadecahydrospiro[cyclopropa[e]pyrrolo[1,2-a][1,4]diazacyclopentadecine-2,3′-pyrano[2,3-c]quinolin]-6-yl]carbamate] | – | – | 0.02 nM | 1720 pM
